Results reported in patent publication US20080009418A1, “Selective Inhibitors” (Alchemia LTD., priority 2004, published 2008).

Experiments:
Human melanocortin (MC5) = target: T1, Human melanocortin (MC5) (Homo sapiens, UniProt P33032); test: Radioligand binding, human melanocortin MC5 membranes, FlashPlate, [125I]-NDP-αMSH; conditions: compound at 10 μM, [125I]-NDP-αMSH, human MC5 membranes
T1 construct: purchased Perkin Elmer Biosignal
Method in brief: (§1)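 Cloned human receptor membranes were coated onto FlashPlate wells and incubated with radioligand and compound (added from a 0.5 mM DMSO daughter plate) for 1 hour at room temperature in the dark. Scintillation counting gave percent inhibition, with DMSO defining total and reference ligand defining non-specific binding.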

Human Melanocortin (MC3) = target: T2, Human Melanocortin (MC3) (Homo sapiens, UniProt P41968); test: Radioligand binding, human melanocortin MC3 membranes, FlashPlate, [125I]-NDP-αMSH; conditions: compound at 10 μM, [125I]-NDP-αMSH, human MC3 membranes
T2 construct: purchased Perkin Elmer Biosignal
T2 sequence (P41968 whole entry): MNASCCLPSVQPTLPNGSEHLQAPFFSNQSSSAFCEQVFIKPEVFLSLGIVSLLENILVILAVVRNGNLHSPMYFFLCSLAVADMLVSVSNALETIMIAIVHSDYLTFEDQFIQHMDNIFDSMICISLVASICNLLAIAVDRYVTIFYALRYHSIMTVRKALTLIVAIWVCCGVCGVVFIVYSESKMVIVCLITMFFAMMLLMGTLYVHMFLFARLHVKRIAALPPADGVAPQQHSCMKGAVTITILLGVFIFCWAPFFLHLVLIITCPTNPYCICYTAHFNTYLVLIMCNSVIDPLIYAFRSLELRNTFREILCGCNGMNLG
Method in brief: as §1

Human μ-opioid (MOP) = target: T3, Human μ-opioid (MOP) (Homo sapiens, UniProt P35372); test: Radioligand binding, human μ-opioid (MOP) membranes, FlashPlate, [3H]-Naloxone; conditions: compound at 10 μM, [3H]-Naloxone, human MOP membranes
T3 construct: purchased Perkin Elmer Biosignal
T3 sequence (P35372 whole entry): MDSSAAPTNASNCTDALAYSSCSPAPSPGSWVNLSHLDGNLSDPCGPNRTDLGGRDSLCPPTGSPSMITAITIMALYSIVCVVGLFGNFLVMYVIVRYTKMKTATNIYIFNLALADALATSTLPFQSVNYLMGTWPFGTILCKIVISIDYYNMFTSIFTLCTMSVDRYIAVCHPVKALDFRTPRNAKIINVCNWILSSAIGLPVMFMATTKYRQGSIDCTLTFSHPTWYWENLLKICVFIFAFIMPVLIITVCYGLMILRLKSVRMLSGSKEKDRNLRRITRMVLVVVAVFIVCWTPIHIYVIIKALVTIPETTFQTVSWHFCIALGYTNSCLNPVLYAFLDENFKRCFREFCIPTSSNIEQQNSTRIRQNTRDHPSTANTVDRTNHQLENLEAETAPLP
Method in brief: as §1

Human κ-Opioid (KOP) = target: T4, Human κ-Opioid (KOP) (Homo sapiens, UniProt P41145); test: Radioligand binding, human κ-opioid (KOP) membranes, filtration, [3H]-Diprenorphine; conditions: compound at 10 μM, [3H]-Diprenorphine, human KOP membranes
T4 construct: purchased Perkin Elmer Biosignal
T4 sequence (P41145 whole entry): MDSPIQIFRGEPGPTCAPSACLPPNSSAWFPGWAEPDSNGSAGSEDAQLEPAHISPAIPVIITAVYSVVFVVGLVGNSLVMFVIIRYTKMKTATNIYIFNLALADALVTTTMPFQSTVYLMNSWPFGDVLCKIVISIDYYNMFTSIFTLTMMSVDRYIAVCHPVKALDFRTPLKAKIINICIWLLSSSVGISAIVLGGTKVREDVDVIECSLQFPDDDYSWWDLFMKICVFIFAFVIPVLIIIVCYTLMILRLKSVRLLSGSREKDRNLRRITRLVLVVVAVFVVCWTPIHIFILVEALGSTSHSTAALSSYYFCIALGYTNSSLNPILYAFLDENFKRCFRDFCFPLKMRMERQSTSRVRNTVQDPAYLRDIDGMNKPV
Method in brief: (§2)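 Membranes from cloned human receptors were incubated with compound and radioligand for 1 hour at room temperature. Bound ligand was collected on 0.3% PEI-soaked filters, washed with cold 50 mM Tris-HCl pH 7.4, and counted by scintillation. Percent inhibition was computed against DMSO totals and reference-ligand nonspecific wells.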

[1] = target: T5, Human melanin-concentrating hormone (MCH1) (Homo sapiens, UniProt Q99705); test: Radioligand binding, human melanin-concentrating hormone MCH1 membranes, FlashPlate, [125I]-S36057; conditions: compound at 10 μM, [125I]-S36057, human MCH1 membranes
T5 construct: purchased Perkin Elmer Biosignal
T5 sequence (Q99705 whole entry): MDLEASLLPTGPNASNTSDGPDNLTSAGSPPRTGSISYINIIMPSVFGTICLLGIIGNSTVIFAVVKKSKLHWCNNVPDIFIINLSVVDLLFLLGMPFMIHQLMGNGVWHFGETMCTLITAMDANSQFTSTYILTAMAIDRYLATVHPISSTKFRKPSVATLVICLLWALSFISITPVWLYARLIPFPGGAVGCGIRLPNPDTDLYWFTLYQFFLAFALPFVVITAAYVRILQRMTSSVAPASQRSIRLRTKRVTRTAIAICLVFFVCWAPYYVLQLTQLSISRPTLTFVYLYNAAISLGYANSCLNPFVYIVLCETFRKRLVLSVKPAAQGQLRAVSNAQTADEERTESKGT
Method in brief: as §1

Human opioid (ORL1) = target: T6, Human opioid (ORL1) (Homo sapiens, UniProt P41146); test: Radioligand binding, human opioid ORL1 membranes, FlashPlate, [125I]-Nociceptin; conditions: compound at 10 μM, [125I]-Nociceptin, human ORL1 membranes
T6 construct: purchased Perkin Elmer Biosignal
T6 sequence (P41146 whole entry): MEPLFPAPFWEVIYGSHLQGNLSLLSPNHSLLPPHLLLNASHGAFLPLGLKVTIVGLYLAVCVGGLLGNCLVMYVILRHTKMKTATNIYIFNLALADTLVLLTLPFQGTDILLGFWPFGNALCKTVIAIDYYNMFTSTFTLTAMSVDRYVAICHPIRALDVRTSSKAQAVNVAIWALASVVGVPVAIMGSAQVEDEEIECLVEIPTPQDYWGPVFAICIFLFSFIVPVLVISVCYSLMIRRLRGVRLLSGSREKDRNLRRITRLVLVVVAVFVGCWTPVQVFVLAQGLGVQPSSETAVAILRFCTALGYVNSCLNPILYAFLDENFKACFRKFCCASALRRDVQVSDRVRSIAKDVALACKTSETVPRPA
Method in brief: as §1

Human neurokinin (NK1) = target: T7, Human neurokinin (NK1) (Homo sapiens, UniProt P25103); test: Radioligand binding, human neurokinin NK1 membranes, filtration, [125I]-Substance P; conditions: compound at 10 μM; [125I]-Substance P, human NK1 membranes
T7 construct: purchased Perkin Elmer Biosignal
T7 sequence (P25103 whole entry): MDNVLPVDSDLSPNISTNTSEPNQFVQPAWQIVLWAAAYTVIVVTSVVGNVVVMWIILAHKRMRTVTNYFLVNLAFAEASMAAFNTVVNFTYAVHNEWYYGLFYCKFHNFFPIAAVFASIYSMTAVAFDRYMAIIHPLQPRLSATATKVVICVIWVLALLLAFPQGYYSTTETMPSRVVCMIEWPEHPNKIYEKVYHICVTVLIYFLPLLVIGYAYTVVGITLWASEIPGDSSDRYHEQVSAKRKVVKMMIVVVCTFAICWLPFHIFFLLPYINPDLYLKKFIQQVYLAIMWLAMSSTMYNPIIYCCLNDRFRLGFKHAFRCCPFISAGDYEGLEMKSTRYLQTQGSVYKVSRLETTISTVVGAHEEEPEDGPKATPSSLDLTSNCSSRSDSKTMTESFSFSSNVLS
Method in brief: as §2

Human Melanocortin (MC4) = target: T8, Human Melanocortin (MC4) (Homo sapiens, UniProt P32245); test: Radioligand binding, human melanocortin MC4 membranes, FlashPlate, [125I]-NDP-αMSH; conditions: compound at 10 μM, [125I]-NDP-αMSH, human MC4 membranes
T8 construct: purchased Perkin Elmer Biosignal
T8 sequence (P32245 whole entry): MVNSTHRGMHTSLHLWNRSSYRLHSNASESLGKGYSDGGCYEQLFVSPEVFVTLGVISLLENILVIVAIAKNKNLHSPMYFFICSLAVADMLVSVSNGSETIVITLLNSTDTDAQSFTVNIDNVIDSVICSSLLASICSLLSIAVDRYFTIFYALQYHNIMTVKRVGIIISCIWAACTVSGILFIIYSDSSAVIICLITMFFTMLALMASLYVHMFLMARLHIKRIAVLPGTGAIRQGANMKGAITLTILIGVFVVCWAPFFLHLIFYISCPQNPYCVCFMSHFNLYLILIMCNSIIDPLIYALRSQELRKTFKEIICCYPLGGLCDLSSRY
Method in brief: as §1

[2] = target: T9, Human neuropeptide Y (NPY-Y1) (Homo sapiens, UniProt P25929); test: Radioligand binding, human neuropeptide Y NPY-Y1 membranes, FlashPlate, [125I]-PYY; conditions: compound at 10 μM; [125I]-PYY, human NPY-Y1 membranes
T9 construct: purchased Perkin Elmer Biosignal
T9 sequence (P25929 1-384): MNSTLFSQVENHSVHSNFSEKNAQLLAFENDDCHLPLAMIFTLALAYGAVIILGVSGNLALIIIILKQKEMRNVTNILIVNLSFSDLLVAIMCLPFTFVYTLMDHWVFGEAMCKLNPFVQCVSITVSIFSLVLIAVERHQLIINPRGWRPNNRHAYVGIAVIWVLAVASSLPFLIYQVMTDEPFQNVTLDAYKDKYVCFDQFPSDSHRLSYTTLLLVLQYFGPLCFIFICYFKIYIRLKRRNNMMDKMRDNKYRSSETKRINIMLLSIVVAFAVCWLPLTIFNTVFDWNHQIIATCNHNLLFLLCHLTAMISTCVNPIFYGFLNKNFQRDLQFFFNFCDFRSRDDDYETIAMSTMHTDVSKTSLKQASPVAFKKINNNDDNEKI
Method in brief: as §1

Mouse urotensin (mUR2) = target: T10, Mouse urotensin (mUR2) (Mus musculus, UniProt Q8VIH9); test: Radioligand binding, mouse urotensin mUR2 membranes, FlashPlate, [125I]-Urotensin II; conditions: compound at 10 μM; [125I]-Urotensin II, mouse mUR2 membranes
T10 construct: purchased Perkin Elmer Biosignal
T10 sequence (Q8VIH9 1-385): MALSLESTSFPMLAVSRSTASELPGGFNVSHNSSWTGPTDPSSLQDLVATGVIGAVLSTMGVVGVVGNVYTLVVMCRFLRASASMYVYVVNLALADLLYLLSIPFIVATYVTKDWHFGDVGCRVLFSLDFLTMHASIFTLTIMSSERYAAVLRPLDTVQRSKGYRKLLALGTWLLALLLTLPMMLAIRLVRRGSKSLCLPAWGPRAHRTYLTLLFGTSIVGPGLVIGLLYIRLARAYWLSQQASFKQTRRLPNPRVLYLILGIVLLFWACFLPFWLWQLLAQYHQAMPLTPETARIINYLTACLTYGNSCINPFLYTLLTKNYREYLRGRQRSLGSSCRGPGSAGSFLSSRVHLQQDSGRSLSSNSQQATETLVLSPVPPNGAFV
Method in brief: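 Cloned mouse urotensin (mUR2) receptor membranes from Perkin Elmer Biosignal were immobilized in FlashPlate microplates using a proprietary coating. Each well got 19.5 μl buffer, then 0.5 μl of DMSO, reference ligand, or compound. Adding 5 μl of [125I]-Urotensin II, diluted to 5× final concentration in binding buffer, started binding. Plates were sealed with TopSeal-A and incubated 1 hour at room temperature in the dark. Wells were counted for 30 seconds each on a TopCount after a 60-second delay, and percentage inhibition was calculated.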

Human δ-opioid (DOP) = target: T11, Human δ-opioid (DOP) (Homo sapiens, UniProt P41143); test: Radioligand binding, human δ-opioid (DOP) membranes, FlashPlate, [3H]-Bremazocine; conditions: compound at 10 μM; [3H]-Bremazocine, human DOP membranes
T11 construct: purchased Perkin Elmer Biosignal
T11 sequence (P41143 whole entry): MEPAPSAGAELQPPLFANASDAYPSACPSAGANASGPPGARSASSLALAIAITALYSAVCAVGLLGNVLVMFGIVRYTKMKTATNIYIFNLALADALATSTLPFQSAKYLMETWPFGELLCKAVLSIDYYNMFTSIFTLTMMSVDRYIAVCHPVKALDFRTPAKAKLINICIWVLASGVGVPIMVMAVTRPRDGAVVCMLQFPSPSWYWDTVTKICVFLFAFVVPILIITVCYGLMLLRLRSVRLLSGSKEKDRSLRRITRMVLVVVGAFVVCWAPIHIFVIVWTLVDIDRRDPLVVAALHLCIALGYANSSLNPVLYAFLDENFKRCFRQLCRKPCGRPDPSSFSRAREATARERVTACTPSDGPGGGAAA
Method in brief: as §1

T1 sequence (P33032 whole entry): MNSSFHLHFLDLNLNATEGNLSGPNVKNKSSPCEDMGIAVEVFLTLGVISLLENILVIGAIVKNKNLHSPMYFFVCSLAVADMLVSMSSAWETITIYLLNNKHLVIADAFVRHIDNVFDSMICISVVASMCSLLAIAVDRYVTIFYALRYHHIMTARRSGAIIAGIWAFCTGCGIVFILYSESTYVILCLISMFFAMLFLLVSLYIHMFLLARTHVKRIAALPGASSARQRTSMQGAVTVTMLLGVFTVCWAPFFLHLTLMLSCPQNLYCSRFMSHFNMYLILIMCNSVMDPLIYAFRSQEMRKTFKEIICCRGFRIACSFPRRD

Row | SMILES | A5: inhibition of radioligand binding (Human melanocortin (MC5)) | A3: inhibition of radioligand binding (Human Melanocortin (MC3)) | A7: inhibition of radioligand binding (Human μ-opioid (MOP)) | A2: inhibition of radioligand binding (Human κ-Opioid (KOP)) | A6: inhibition of radioligand binding [1] | A10: inhibition of radioligand binding (Human opioid (ORL1)) | A8: inhibition of radioligand binding (Human neurokinin (NK1)) | A4: inhibition of radioligand binding (Human Melanocortin (MC4)) | A9: inhibition of radioligand binding [2] | A11: inhibition of radioligand binding (Mouse urotensin (mUR2)) | A1: inhibition of radioligand binding (Human δ-opioid (DOP)) | A5: inhibition of radioligand binding (Human melanocortin (MC5); 10 µM) | A3: inhibition of radioligand binding (Human Melanocortin (MC3); 10 µM) | A7: inhibition of radioligand binding (Human μ-opioid (MOP); 10 µM) | A2: inhibition of radioligand binding (Human κ-Opioid (KOP); 10 µM) | A6: inhibition of radioligand binding ([1]; 10 µM) | A10: inhibition of radioligand binding (Human opioid (ORL1); 10 µM) | A4: inhibition of radioligand binding (Human Melanocortin (MC4); 10 µM)
1 | NCCC(=O)N[C@H]1C(OCc2ccc3ccccc3c2)O[C@H](COCc2ccc3ccccc3c2)[C@@H](O)[C@@H]1OCc1ccc2ccccc2c1 (stereo partly shown) [compound 443] | + (“+” indicates greater than 50% inhibition at 10 μM) | + (“+” indicates greater than 50% inhibition at 10 μM) | − (“−” indicates less than 50% inhibition at 10 μM) | − (“−” indicates less than 50% inhibition at 10 μM) | + (“+” indicates greater than 50% inhibition at 10 μM) | + (“+” indicates greater than 50% inhibition at 10 μM) | + (“+” indicates greater than 50% inhibition at 10 μM) | + (“+” indicates greater than 50% inhibition at 10 μM) | − (“−” indicates less than 50% inhibition at 10 μM) | − (“−” indicates less than 50% inhibition at 10 μM) | − (“−” indicates less than 50% inhibition at 10 μM) | – | – | – | – | – | – | –
2 | NCCC(=O)N[C@H]1C(OCc2ccc3ccccc3c2)O[C@H](COCc2ccccc2)[C@@H](O)[C@@H]1OCc1ccc2ccccc2c1 (stereo partly shown) [compound 444] | – | – | – | – | – | – | + (“+” indicates greater than 50% inhibition at 10 μM) | – | − (“−” indicates less than 50% inhibition at 10 μM) | − (“−” indicates less than 50% inhibition at 10 μM) | − (“−” indicates less than 50% inhibition at 10 μM) | − (“−” indicates less than 50% inhibition at 10 μM) | − (“−” indicates less than 50% inhibition at 10 μM) | − (“−” indicates less than 50% inhibition at 10 μM) | − (“−” indicates less than 50% inhibition at 10 μM) | − (“−” indicates less than 50% inhibition at 10 μM) | − (“−” indicates less than 50% inhibition at 10 μM) | − (“−” indicates less than 50% inhibition at 10 μM)
3 | NCCC(=O)N[C@H]1C(OCc2ccc3ccccc3c2)O[C@H](COCc2ccccc2)[C@@H](O)[C@@H]1OCc1ccc2ccccc2c1 (stereo partly shown) [compound 445] | – | – | – | – | – | – | + (“+” indicates greater than 50% inhibition at 10 μM) | – | − (“−” indicates less than 50% inhibition at 10 μM) | − (“−” indicates less than 50% inhibition at 10 μM) | − (“−” indicates less than 50% inhibition at 10 μM) | + (“+” indicates greater than 50% inhibition at 10 μM) | + (“+” indicates greater than 50% inhibition at 10 μM) | + (“+” indicates greater than 50% inhibition at 10 μM) | + (“+” indicates greater than 50% inhibition at 10 μM) | + (“+” indicates greater than 50% inhibition at 10 μM) | + (“+” indicates greater than 50% inhibition at 10 μM) | + (“+” indicates greater than 50% inhibition at 10 μM)
4 | NCCC(=O)N[C@H]1C(OCc2ccc3ccccc3c2)O[C@H](COCc2ccc(Cl)cc2)[C@@H](O)[C@@H]1OCc1ccc2ccccc2c1 (stereo partly shown) [compound 446] | + (“+” indicates greater than 50% inhibition at 10 μM) | – | − (“−” indicates less than 50% inhibition at 10 μM) | − (“−” indicates less than 50% inhibition at 10 μM) | – | − (“−” indicates less than 50% inhibition at 10 μM) | + (“+” indicates greater than 50% inhibition at 10 μM) | – | − (“−” indicates less than 50% inhibition at 10 μM) | − (“−” indicates less than 50% inhibition at 10 μM) | − (“−” indicates less than 50% inhibition at 10 μM) | – | − (“−” indicates less than 50% inhibition at 10 μM) | – | – | − (“−” indicates less than 50% inhibition at 10 μM) | – | − (“−” indicates less than 50% inhibition at 10 μM)
5 | NCCC(=O)N[C@H]1C(OCc2ccc3ccccc3c2)O[C@H](COCc2ccc(Cl)cc2)[C@@H](O)[C@@H]1OCc1ccc2ccccc2c1 (stereo partly shown) [compound 447] | + (“+” indicates greater than 50% inhibition at 10 μM) | – | − (“−” indicates less than 50% inhibition at 10 μM) | − (“−” indicates less than 50% inhibition at 10 μM) | – | − (“−” indicates less than 50% inhibition at 10 μM) | + (“+” indicates greater than 50% inhibition at 10 μM) | – | − (“−” indicates less than 50% inhibition at 10 μM) | − (“−” indicates less than 50% inhibition at 10 μM) | − (“−” indicates less than 50% inhibition at 10 μM) | – | + (“+” indicates greater than 50% inhibition at 10 μM) | – | – | + (“+” indicates greater than 50% inhibition at 10 μM) | – | + (“+” indicates greater than 50% inhibition at 10 μM)
